Reference: publication PMC8032764 (Scientific Reports, 2021)
Read-outs that look alike come from different tables or passages of the source.

Assays:
[1] = target: T1, human GABAA α2β3γ2 receptors (Homo sapiens, UniProt P18507+P47869); experiment: [3H]-flumazenil competition binding, HEK293 membranes; conditions: 1 nM [3H]-flumazenil
T1 construct: expressed in transfected cells; host or cells: HEK293-EBNA, transient
Method: (§1) HEK293-EBNA cells adapted to grow in suspension were transiently transfected with the plasmids containing the desired GABAA receptor subunit cDNAs at α, β, γ, 1:1:2 ratio using XtremeGENE Q2 (Cat. No. 03045595001, Roche Applied Science, RAS, Rotkreuz, Switzerland) as previously described. GABAA α1β2γ2, α2β3γ2, α3β3γ2, α4β3γ2, α5β3γ2 and α6β3γ2 receptor subtypes were expressed in this system. 48 h post transfection, the cells were harvested and washed three times with cold PBS and frozen at − 80 °C.
(§2) Non-specific binding was determined in the presence of 10 μM diazepam.

[2] = target: T2, human GABAA α3β3γ2 receptors (Homo sapiens, UniProt P18507+P34903); experiment: as above; conditions: 1 nM [3H]-flumazenil
T2 construct: expressed in transfected cells; host or cells: HEK293-EBNA, transient
Method: as §1, §2

[3] = tested on: T3, human GABAA α1β2γ2; experiment: Two-electrode voltage clamp in Xenopus oocytes, current induced by EC10 of GABA; format: cell-based; conditions: 3000 nM
T3 construct: expressed in transfected cells; host or cells: Xenopus laevis oocytes, cRNA injection
Method: (§3) Freshly prepared oocytes of maturation stage VI were bought from Ecocyte Bioscience (Castrop-Rauxel, Germany) and, after overnight delivery, plated into 96-well plates (Greiner no. 651101) for microinjection on a ROBOOCYTE R16 system (Multichannel Systems MCS GmbH, Reutlingen, Germany). Each oocyte was injected with roughly 50 nL of RNA solution. The solution for expressing receptors composed of the human α1, β2 and γ2 subunits contained 3 pg/nL of α1 and β2 RNA and 15 pg/nL of γ2 RNA. The solution for expressing human α2β3γ2 receptors contained 2.5 pg/nL of α2 and β3 RNA, 5 pg/nL of γ2 RNA and 10 pg/nL of GABARAP RNA. The solution for expressing human α3β3γ2 receptors contained 1.3 pg/nL of α3 and β3 RNA and 6.5 pg/nL of γ2 RNA. The solution for expressing human α5β3γ2 receptors contained 1.3 pg/nL of α5 and β3 RNA and 13 pg/nL of γ2 RNA. GABARAP was added to the α2β3γ2 subunit mixture since the expression of γ2 would be low otherwise, as indicated by a weak effect of β-CCM[60]. After the microinjection the oocytes were kept at 20 °C temperature until the electrophysiological experiment. Experiments were done 3 to 5 days later on the ROBOOCYTE instrument which employs the two-microelectrode voltage-clamp technique for membrane voltage control and current measurement. […] During current recording and compound testing the cell membrane was constantly clamped to − 80 mV. Current signals were recorded and stored on a PC-type computer using the ROBOOCYTE software.
(§4) During the microinjection and up to the electrophysiological experiment the oocytes were kept in a solution containing 88 mM NaCl, 1 mM KCl, 2.5 mM NaHCO3, 10 mM HEPES (AppliChem GmbH, Darmstadt, Germany), 0.82 MgSO4, 0.33 mM Ca(NO3)2, 0.33 mM CaCl2, 100 U/mL penicillin (GIBCO, ThermoFisher Scientific) and 100 µg/mL streptomycine (GIBCO, ThermoFisher Scientific). The pH was adjusted to 7.5. During the experiment the voltage-clamped oocyte was constantly superfused by a solution containing 90 mM NaCl, 1 mM KCl, 5 mM HEPES (AppliChem), 1 mM MgCl2 and 1 mM CaCl2 (pH 7.4). GABA and test compounds were added to this solution. GABA concentrations were chosen according to previously determined concentration–response relations for the different human GABAA receptor subunit combinations. Concentrations evoking approximately 10% of a maximal response were selected, i.e., 8 µM for α1β2γ2, 6 µM for α2β3γ2, 10 µM for α3β3γ2 and 5 µM for α5β3γ2. Solutions containing GABA or test compounds were freshly prepared at least every second day. […] Compounds were further diluted in DMSO and finally in extracellular saline to reach a DMSO concentration of 0.1%. The same amount of DMSO was added to the control solutions without test compounds. […]

[4] = tested on: T4, human GABAA α2β3γ2; experiment: as above; format: cell-based; conditions: 3000 nM
T4 construct: expressed in transfected cells; host or cells: Xenopus laevis oocytes, cRNA injection
Method: as §3, §4

[5] = tested on: T5, human GABAA α3β3γ2; experiment: as above; format: cell-based; conditions: 3000 nM
T5 construct: expressed in transfected cells; host or cells: Xenopus laevis oocytes, cRNA injection
Method: as §3, §4

[6] = tested on: T6, Serotonin 5-HT2A; experiment: Cerep binding; parameters: species or system human; conditions: 10 μM; [3H]ketanserin; hum. recomb. (HEK-293)
T6 construct: purchased Eurofins Cerep

[7] = tested on: T7, Neurokinin NK2; experiment: Cerep binding; parameters: species or system human; conditions: 10 μM; [125I]NKA; hum. recomb. (CHO)
T7 construct: purchased Eurofins Cerep

[8] = tested on: T8, Vasoactive intestinal peptide VPAC1 (VIP1); experiment: Cerep binding; parameters: species or system human; conditions: 10 μM; [125I]VIP; hum. recomb. (CHO)
T8 construct: host or cells: CHO

[9] = Pharmacokinetics, single intravenous dosing; format: in vivo; conditions: C57/Bl6, mouse, plasma, 2.0 mg/kg i.v., 2 male
[10] = Pharmacokinetics, single intravenous dosing; format: in vivo, NHP, Cynomolgus macaque; conditions: cynomolgus monkey, plasma, 1.0 mg/kg i.v.
[11] = target: human GABAA α5β3γ2 (Homo sapiens, UniProt P18507+P31644); experiment: [3H]-Ro-15 4513 displacement assay; format: binding; parameters: expressed in transfected cells; host or cells: HEK293-EBNA, transient
Method: IC50 values were derived from the inhibition curve and Ki values were calculated as described below.

Cc1onc(-c2ccc(F)cc2)c1COc1ccc(C(=O)N2CCS(=O)(=O)CC2)cn1 [basmisanil]
Ki [1]: 0.458 ± 0.027 µM | Ki [2]: 0.51 ± 0.021 µM | inhibition [3]: < 10% | inhibition [4]: < 10% | inhibition [5]: < 10% | % Inhibition [6]: -9% | % Inhibition [7]: 7% | % Inhibition [8]: 0% | half-life [9]: 0.5 h | clearance ([9]; read-out: Total CL): 2.22 L/h/kg | Vd ([9]; read-out: Vss): 1.3 L/kg | half-life ([10]; n=3): 4.5 ± 1.8 h | clearance ([10]; n=3, read-out: Total CL): 0.18 ± 0.042 L/h/kg | Vd ([10]; n=3, read-out: Vss): 0.9 ± 0.6 L/kg | Ki [11]: 0.0076 ± 0.0003 µM
